Experimental data taken from publication PMC6225165, “Design and Synthesis of Novel Dehydroepiandrosterone Analogues as Potent Antiproliferative Agents” (Molecules : A Journal of Synthetic Chemistry and Natural …, 2018).
pIC50: −log10 of the molar value.

Experiments:
[1] = tested on: A549; assay: MTT antiproliferative assay, A549; type: cell-based, human; conditions: 48 h, MTT; for inhibition at 100 µM: read-out: % Growth Inhibition at 100 μM A549
Description: (§1) The antiproliferative activity of the title compounds against the panel of six different human cancer cell lines, viz. lung (A549), cervix (HeLa), liver (HepG-2), liver (BEL7402), colorectal (HCT116), and breast (MCF-7) cell lines, was evaluated using a standard MTT-based colorimetric assay. All cell lines were obtained from the Key Laboratory of Natural Resources and Functional Molecules of the Changbai Mountain (Yanbian University) and maintained in Dulbecco’s modified Eagle’s medium (DMEM) and RPMI Media 1640 (RPMI1640), supplemented with 10% foetal bovine serum (FBS) at 37 °C in a humidified atmosphere containing 5% CO2.
(§2) Cells were plated in 96-well plates at appropriate densities to ensure exponential growth throughout the experimental period (9 × 10^3 cells per well), and then allowed to adhere for 24 h. Cells were then treated for 48 h with each compound. After 48 h of incubation, 10 μL of MTT solution were added to each well to a final concentration of 2 mg·mL^−1. Plates were then incubated for a further 4 h. After incubation, the MTT solution was removed and 150 μL of DMSO were added to each well for coloration. The plates were shaken vigorously for 10 min at room temperature to ensure complete solubilisation. The optometric density (OD) was read on a microplate reader (EL × 800, BioTek, Highland Park, Winooski, VT, USA) at 492 nm, and the data were subsequently analysed. The percentage of cell growth inhibition was calculated from the following equation:Inhibitory rate (%) = [1 − (ODtreated − ODblank)/(ODcontrol − ODblank)] × 100.
(§3) To obtain the antiproliferative activity of compounds 2a–2w, the compounds were selected in the same way with four serial concentrations (1, 10, 50 and 100 μM) of those compounds. The optometric density (OD) reading was then used to calculate the IC50.

[2] = tested on: Hela; assay: MTT antiproliferative assay, Hela; type: cell-based, human; conditions: 48 h, MTT; for inhibition at 100 µM: read-out: % Growth Inhibition at 100 μM Hela
Description: as §1, §2, §3

[3] = tested on: HepG-2; assay: MTT antiproliferative assay, HepG-2; type: cell-based, human; conditions: 48 h, MTT; for inhibition at 100 µM: read-out: % Growth Inhibition at 100 μM HepG-2
Description: as §1, §2, §3

[4] = tested on: BEL7402; assay: MTT antiproliferative assay, BEL7402; type: cell-based, human; conditions: 48 h, MTT; for inhibition at 100 µM: read-out: % Growth Inhibition at 100 μM BEL7402
Description: as §1, §2, §3

[5] = tested on: HCT116; assay: MTT antiproliferative assay, HCT116; type: cell-based, human; conditions: 48 h, MTT; for inhibition at 100 µM: read-out: % Growth Inhibition at 100 μM HCT116
Description: as §1, §2, §3

[6] = tested on: MCF-7; assay: MTT antiproliferative assay, MCF-7; type: cell-based, human; conditions: 48 h, MTT; for inhibition at 100 µM: read-out: % Growth Inhibition at 100 μM MCF-7
Description: as §1, §2, §3

[7] = tested on: human normal liver (L02) cells; assay: MTT assay on normal cell line L02; type: cell-based; conditions: 48 h, MTT; for % Growth Inhibition at 100 μM L02 / inhibition at 100 µM: normal cells; for pIC50: normal cell line; for inhibition at 100 µM: read-out: % Growth Inhibition at 100 μM L02

SMILES	% Growth Inhibition at 100 μM A549 [1]	% Growth Inhibition at 100 μM Hela [2]	% Growth Inhibition at 100 μM HepG-2 [3]	% Growth Inhibition at 100 μM BEL7402 [4]	% Growth Inhibition at 100 μM HCT116 [5]	% Growth Inhibition at 100 μM MCF-7 [6]	% Growth Inhibition at 100 μM L02 [7]	further results
CC12CCC3C(CC=C4CC(O)CCC43C)C1C/C(=C\c1cn(-c3cccc(Br)c3)nn1)C2=O (stereo not shown) [Compound 2j, (E)-16-((1-(3-bromophenyl)-1H-1,2,3-triazol-4-yl)methylene)-3-hydroxy-10,13-dimethyl-1,3,4,7,8,9,10,11,12,13,15,16-dodecahydro-2H-cyclopenta[a]phenan-thren-17(14H)-one]	NA (NA: antiproliferative activity <5%)	20.5%	10.8%	37.6%	42.0%	42.1%	43.8%	–
CC12CCC3C(CC=C4CC(O)CCC43C)C1C/C(=C\c1cn(-c3ccc(Br)cc3)nn1)C2=O (stereo not shown) [Compound 2k, (E)-16-((1-(4-bromophenyl)-1H-1,2,3-triazol-4-yl)methylene)-3-hydroxy-10,13-di-methyl-1,3,4,7,8,9,10,11,12,13,15,16-dodecahydro-2H-cyclopenta[a]phenan-thren-17(14H)-one]	47.8%	30.7%	66.4%	NA (NA: antiproliferative activity <5%)	NA (NA: antiproliferative activity <5%)	45.5%	11.1%	pIC50 [1]: < 4.00; pIC50 [2]: < 4.00; pIC50 [3]: 4.43; pIC50 [4]: < 4.00; pIC50 [5]: < 4.00; pIC50 [6]: < 4.00; pIC50 [7]: < 4.00
CC12CCC3C(CC=C4CC(O)CCC43C)C1C/C(=C\c1cn(-c3ccccc3I)nn1)C2=O (stereo not shown) [Compound 2l, (E)-3-hydroxy-16-((1-(2-iodophenyl)-1H-1,2,3-triazol-4-yl)methylene)-10,13-dim-ethyl-1,3,4,7,8,9,10,11,12,13,15,16-dodecahydro-2H-cyclopenta[a]phenanthren-17(14H)-one]	NA (NA: antiproliferative activity <5%)	NA (NA: antiproliferative activity <5%)	NA (NA: antiproliferative activity <5%)	NA (NA: antiproliferative activity <5%)	NA (NA: antiproliferative activity <5%)	NA (NA: antiproliferative activity <5%)	NA (NA: antiproliferative activity <5%)	–
CC12CCC3C(CC=C4CC(O)CCC43C)C1C/C(=C\c1cn(-c3cccc(I)c3)nn1)C2=O (stereo not shown) [Compound 2m, (E)-3-hydroxy-16-((1-(3-iodophenyl)-1H-1,2,3-triazol-4-yl)methylene)-10,13-dim-ethyl-1,3,4,7,8,9,10,11,12,13,15,16-dodecahydro-2H-cyclopenta[a]phenanthren-17(14H)-one]	NA (NA: antiproliferative activity <5%)	NA (NA: antiproliferative activity <5%)	NA (NA: antiproliferative activity <5%)	14.1%	7.6%	NA (NA: antiproliferative activity <5%)	NA (NA: antiproliferative activity <5%)	–
Cc1cccc(-n2cc(/C=C3\CC4C5CC=C6CC(O)CCC6(C)C5CCC4(C)C3=O)nn2)c1 (stereo not shown) [Compound 2o, (E)-3-hydroxy-10,13-dimethyl-16-((1-m-tolyl-1H-1,2,3-triazol-4-yl)methylene)-1,3,4,7,8,9,10,11,12,13,15,16-dodecahydro-2H-cyclopenta[a]phenanthren-17(14H)-one]	–	–	–	–	–	–	–	inhibition at 100 µM ([1]; Homo sapiens, A549): < 5%; inhibition at 100 µM ([2]; Homo sapiens): 12.7%; inhibition at 100 µM ([3]; Homo sapiens, HepG2): 12.8%; inhibition at 100 µM ([4]; Homo sapiens, Bel-7402): 30.5%; inhibition at 100 µM ([5]; Homo sapiens, HCT-116): 40.9%; inhibition at 100 µM ([6]; Homo sapiens, MCF7): 11.2%; inhibition at 100 µM ([7]; Homo sapiens, L02): 40.1%
Cc1ccc(-n2cc(/C=C3\CC4C5CC=C6CC(O)CCC6(C)C5CCC4(C)C3=O)nn2)cc1 (stereo not shown) [Compound 2p, (E)-3-hydroxy-10,13-dimethyl-16-((1-p-tolyl-1H-1,2,3-triazol-4-yl)methylene)-1,3,4,7,8,9,10,11,12,13,15,16-dodecahydro-2H-cyclopenta[a]phenanthren-17(14H)-one]	–	–	–	–	–	–	–	inhibition at 100 µM ([1]; Homo sapiens, A549): 63.1%; pIC50 ([1]; Homo sapiens, A549): 4.25; pIC50 ([2]; Homo sapiens, HeLa): 4.20; inhibition at 100 µM ([2]; Homo sapiens): 64.6%; inhibition at 100 µM ([3]; Homo sapiens, HepG2): 76%; pIC50 ([3]; Homo sapiens, HepG2): 4.72; inhibition at 100 µM ([4]; Homo sapiens, Bel-7402): 23.7%; pIC50 ([4]; Homo sapiens, Bel-7402): < 4.00; inhibition at 100 µM ([5]; Homo sapiens, HCT-116): 76.5%; pIC50 ([5]; Homo sapiens, HCT-116): 4.36; inhibition at 100 µM ([6]; Homo sapiens, MCF7): 21.7%; pIC50 ([6]; Homo sapiens, MCF7): < 4.00; inhibition at 100 µM ([7]; Homo sapiens, L02): 67.1%; pIC50 ([7]; Homo sapiens, L02): 4.21
COc1ccccc1-n1cc(/C=C2\CC3C4CC=C5CC(O)CCC5(C)C4CCC3(C)C2=O)nn1 (stereo not shown) [Compound 2q, (E)-3-hydroxy-16-((1-(2-methoxyphenyl)-1H-1,2,3-triazol-4-yl)methylene)-10,13-dimethyl-1,3,4,7,8,9,10,11,12,13,15,16-dodecahydro-2H-cyclopenta[a]phenan-thren-17(14H)-one]	7.6%	NA (NA: antiproliferative activity <5%)	NA (NA: antiproliferative activity <5%)	10.0%	14.3%	34.6%	NA (NA: antiproliferative activity <5%)	–
COc1cccc(-n2cc(/C=C3\CC4C5CC=C6CC(O)CCC6(C)C5CCC4(C)C3=O)nn2)c1 (stereo not shown) [Compound 2r, (E)-3-hydroxy-16-((1-(3-methoxyphenyl)-1H-1,2,3-triazol-4-yl)methylene)-10,13-dimethyl-1,3,4,7,8,9,10,11,12,13,15,16-dodecahydro-2H-cyclopenta[a]phenan-thren-17(14H)-one]	NA (NA: antiproliferative activity <5%)	NA (NA: antiproliferative activity <5%)	NA (NA: antiproliferative activity <5%)	NA (NA: antiproliferative activity <5%)	NA (NA: antiproliferative activity <5%)	NA (NA: antiproliferative activity <5%)	16.9%	–
COc1ccc(-n2cc(/C=C3\CC4C5CC=C6CC(O)CCC6(C)C5CCC4(C)C3=O)nn2)cc1 (stereo not shown) [Compound 2s, (E)-3-hydroxy-16-((1-(4-methoxyphenyl)-1H-1,2,3-triazol-4-yl)methylene)-10,13-dimethyl-1,3,4,7,8,9,10,11,12,13,15,16-dodecahydro-2H-cyclopenta[a]phenan-thren-17(14H)-one]	44.0%	14.9%	42.3%	38.4%	70.7%	58.1%	58.5%	pIC50 [1]: < 4.00; pIC50 [2]: < 4.00; pIC50 [3]: < 4.00; pIC50 [4]: < 4.00; pIC50 [5]: 4.24; pIC50 [6]: 4.16; pIC50 [7]: 4.09
COc1ccc(-n2cc(/C=C3\CC4C5CC=C6CC(O)CCC6(C)C5CCC4(C)C3=O)nn2)cc1OC (stereo not shown) [Compound 2t, (E)-16-((1-(3,4-dimethoxyphenyl)-1H-1,2,3-triazol-4-yl)methylene)-3-hydroxy-10,13-dimethyl-1,3,4,7,8,9,10,11,12,13,15,16-dodecahydro-2H-cyclopenta[a]phenan-thren-17(14H)-one]	NA (NA: antiproliferative activity <5%)	NA (NA: antiproliferative activity <5%)	NA (NA: antiproliferative activity <5%)	NA (NA: antiproliferative activity <5%)	NA (NA: antiproliferative activity <5%)	NA (NA: antiproliferative activity <5%)	9.4%	–
